The source of these data is publication PMC11939327, “Chaetocin, a Natural Inhibitor of Transketolase, Suppresses the Non-Oxidative Pentose Phosphate Pathway and Inhibits the Growth of Drug-Resistant Non-Small Cell Lung Cancer” (Antioxidants, 2025).

In the assay the target is T1, transketolase (TKT) (Homo sapiens, UniProt P29401).
T1 sequence (P29401 1-623): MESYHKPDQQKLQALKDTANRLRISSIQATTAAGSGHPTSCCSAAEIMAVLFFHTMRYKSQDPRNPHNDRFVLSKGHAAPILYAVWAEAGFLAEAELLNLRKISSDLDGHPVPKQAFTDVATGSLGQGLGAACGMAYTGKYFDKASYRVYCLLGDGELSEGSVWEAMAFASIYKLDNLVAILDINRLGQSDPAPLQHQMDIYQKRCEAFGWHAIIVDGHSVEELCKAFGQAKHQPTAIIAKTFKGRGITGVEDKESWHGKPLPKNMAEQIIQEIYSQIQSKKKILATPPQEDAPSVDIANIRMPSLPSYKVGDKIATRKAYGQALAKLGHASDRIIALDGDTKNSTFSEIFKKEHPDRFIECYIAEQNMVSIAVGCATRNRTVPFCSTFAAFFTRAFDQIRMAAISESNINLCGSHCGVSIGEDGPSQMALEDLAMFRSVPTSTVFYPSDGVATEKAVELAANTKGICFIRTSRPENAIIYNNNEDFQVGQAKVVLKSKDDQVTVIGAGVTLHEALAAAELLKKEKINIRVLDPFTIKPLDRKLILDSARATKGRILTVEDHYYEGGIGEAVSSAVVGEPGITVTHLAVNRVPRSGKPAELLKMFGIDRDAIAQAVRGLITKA
Description: Bio-layer interferometry with biotinylated TKT on SA biosensors; supported by DARTS and CETSA in A549/DDP cells. The format is binding. In general terms: Biolayer interferometry detects binding as a change in optical thickness at a sensor tip.

The Kd is the concentration at which binding is half-saturated. With `CN1C(=O)[C@@]23C[C@]4([C@]56C[C@@]78SS[C@@](CO)(C(=O)N7[C@H]5Nc5ccccc56)N(C)C8=O)c5ccccc5N[C@@H]4N2C(=O)[C@]1(CO)SS3` [chaetocin], the Kd stood at 63.2 µM.
